The numbers were not newly measured in US20070048250A1, “Methods of treating concomitant constipation in a cancer treatment regimen including imexon” (AmpliMed Corporation, priority 2005, published 2007), which cites them from elsewhere.

Series [1] deals with fresh human tumor cell lines. Particulars: cited from earlier work.
The subject of a further series is rats. The note with it: numerous studies; cited from earlier work.
For the next series, the system named is cancer patients. Particulars: phase I; cited from earlier work.
For series [2] the following is noted: combined with cisplatin, dacarbazine, melphalan, cytarabine, 5-fluorouracil, gemcitabine, or docetaxel; cited from earlier work.
For series [3], the system named is human lymphoma, melanoma, and prostate cancer cell lines. The note with it: mouse, in vivo; cited from earlier work.
In a further series the test system is transplanted tumors. The note with it: in vivo; cited from earlier work.
The test system of the next series is human tumor cell lines. The note with it: cited from earlier work.
Another series relates to mast cell tumors. The note with it: dog, in vivo; cited from earlier work.
The subject of the next series is dogs. The note with it: numerous studies; cited from earlier work.

On to `N=C1NC(=O)N2CC12` (centres unmarked) [imexon, 4-imino-1,3-diazabicyclo[3.1.0]-hexan-2-one], for which the “activity against fresh human tumor cell lines in clonogenic assay” value in series [1] is recorded as “active”. In series [1] (multiple myeloma), the “cytotoxicity to multiple myeloma in the clonogenic assay” value is “selective cytotoxicity”. Moreover, the “gastrointestinal lesions on pathologic examination” value in the series with rats is reported as “not shown evidence of gastrointestinal lesions”. Also, in the series on cancer patients, the clinical response entry was “produced objective responses or stabilized neoplastic diseases” and the tolerability result is listed as “well tolerated”. Also, the effect of combination entry in [2] is given as “synergistic therapeutic cytotoxic effect”. The “activity against human lymphoma, melanoma, and prostate cancer cell lines in SCID mice” value in [3] is listed as “active”. In addition, the “activity against a variety of transplanted tumors in rodents” value with transplanted tumors was “active”. Moreover, in the series on human tumor cell lines, the “activity against a variety of human tumor cell lines in culture” value is recorded as “active”. Besides, the “tumor response in dogs with mast cell tumors” value in the series on mast cell tumors is reported as “Objective responses have been observed”. Further, in the series with dogs, the “gastrointestinal lesions on pathologic examination” value was “not shown evidence of gastrointestinal lesions”.
